Reference: PMC11410943 (Nature Communications, 2024)
Values after ≈ are worked out from the molar mass of the structure shown. Read-outs that look alike come from different tables or passages of the source.

Experiments:
Enterobacter cloacae = test: MIC; conditions: IHMA/CARB-X MDR clinical isolates 2019, N=152
Klebsiella pneumoniae = test: MIC
Escherichia coli = test: MIC
Citrobacter spp. = test: MIC
Morganella morganii = test: MIC; conditions: IHMA/CARB-X MDR clinical isolates 2019, N=42
Pseudomonas aeruginosa = test: MIC
Acinetobacter baumannii = test: MIC; conditions: IHMA/CARB-X MDR clinical isolates 2019, N=298
Proteus spp. = test: MIC
Serratia marcescens = test: MIC; conditions: IHMA/CARB-X MDR clinical isolates 2019, N=45
[1] = system: Stenotrophomonas maltophilia; test: MIC; conditions: IHMA/CARB-X MDR clinical isolates 2019, N=150
hERG K+ channel = hERG K+ channel (Homo sapiens, UniProt Q12809); test: hERG automated patch-clamp; format: cell-based
E. coli gyrase = E. coli gyrase (Escherichia coli, UniProt P0AES4); test: E. coli gyrase supercoiling inhibition; format: biochemical
E. coli topoisomerase IV = E. coli topoisomerase IV (Escherichia coli, UniProt P0AFI2); test: E. coli topoisomerase IV decatenation inhibition; format: biochemical
[2] = system: MDR Gram-negative and Gram-positive pathogens; test: MIC
Neisseria gonorrhoeae = test: MIC; conditions: IHMA/CARB-X isolates 1997 to 2021, N=90
[3] = IHMA/CARB-X MDR clinical isolates 2019, N=300
[4] = IHMA/CARB-X MDR clinical isolates 2019, N=151
[5] = IHMA/CARB-X MDR clinical isolates 2019, N=152

Chain of E. coli topoisomerase IV (P0AFI2 whole entry): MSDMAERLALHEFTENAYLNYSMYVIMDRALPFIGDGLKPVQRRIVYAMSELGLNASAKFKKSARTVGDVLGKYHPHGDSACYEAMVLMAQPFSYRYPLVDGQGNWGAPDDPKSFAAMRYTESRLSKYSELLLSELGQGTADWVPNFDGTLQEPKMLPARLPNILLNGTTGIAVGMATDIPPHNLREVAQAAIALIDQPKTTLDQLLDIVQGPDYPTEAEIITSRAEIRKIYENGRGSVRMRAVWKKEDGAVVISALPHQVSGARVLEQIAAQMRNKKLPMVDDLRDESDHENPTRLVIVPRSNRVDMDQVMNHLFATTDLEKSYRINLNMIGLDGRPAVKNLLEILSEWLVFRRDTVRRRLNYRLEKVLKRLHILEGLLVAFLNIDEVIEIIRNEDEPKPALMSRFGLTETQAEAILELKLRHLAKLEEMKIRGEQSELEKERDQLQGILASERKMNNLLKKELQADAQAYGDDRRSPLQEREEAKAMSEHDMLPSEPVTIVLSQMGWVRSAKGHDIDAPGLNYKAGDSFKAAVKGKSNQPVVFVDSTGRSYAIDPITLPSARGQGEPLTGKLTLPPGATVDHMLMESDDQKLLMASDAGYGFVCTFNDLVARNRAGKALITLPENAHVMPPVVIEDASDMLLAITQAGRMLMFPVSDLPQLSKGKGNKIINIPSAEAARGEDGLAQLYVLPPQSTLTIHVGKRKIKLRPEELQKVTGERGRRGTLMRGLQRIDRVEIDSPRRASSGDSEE
Chain of E. coli topoisomerase IV (P20083 whole entry partner): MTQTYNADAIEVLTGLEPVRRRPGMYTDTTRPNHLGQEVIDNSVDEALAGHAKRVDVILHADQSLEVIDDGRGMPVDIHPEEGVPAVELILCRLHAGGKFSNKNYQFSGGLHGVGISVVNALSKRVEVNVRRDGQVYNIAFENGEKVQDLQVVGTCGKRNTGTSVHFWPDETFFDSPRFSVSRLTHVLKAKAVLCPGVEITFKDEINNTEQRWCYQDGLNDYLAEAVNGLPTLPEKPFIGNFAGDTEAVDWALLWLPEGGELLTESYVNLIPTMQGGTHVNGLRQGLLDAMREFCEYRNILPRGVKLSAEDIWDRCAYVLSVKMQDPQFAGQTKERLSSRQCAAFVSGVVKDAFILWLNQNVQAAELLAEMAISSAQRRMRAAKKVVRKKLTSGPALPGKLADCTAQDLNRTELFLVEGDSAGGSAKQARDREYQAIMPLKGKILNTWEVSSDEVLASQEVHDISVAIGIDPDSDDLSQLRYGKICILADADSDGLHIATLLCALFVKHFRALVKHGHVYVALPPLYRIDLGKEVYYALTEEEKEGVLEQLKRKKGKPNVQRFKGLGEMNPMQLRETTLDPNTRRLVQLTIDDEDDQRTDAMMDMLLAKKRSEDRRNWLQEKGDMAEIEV
Chain of hERG K+ channel (Q12809 whole entry): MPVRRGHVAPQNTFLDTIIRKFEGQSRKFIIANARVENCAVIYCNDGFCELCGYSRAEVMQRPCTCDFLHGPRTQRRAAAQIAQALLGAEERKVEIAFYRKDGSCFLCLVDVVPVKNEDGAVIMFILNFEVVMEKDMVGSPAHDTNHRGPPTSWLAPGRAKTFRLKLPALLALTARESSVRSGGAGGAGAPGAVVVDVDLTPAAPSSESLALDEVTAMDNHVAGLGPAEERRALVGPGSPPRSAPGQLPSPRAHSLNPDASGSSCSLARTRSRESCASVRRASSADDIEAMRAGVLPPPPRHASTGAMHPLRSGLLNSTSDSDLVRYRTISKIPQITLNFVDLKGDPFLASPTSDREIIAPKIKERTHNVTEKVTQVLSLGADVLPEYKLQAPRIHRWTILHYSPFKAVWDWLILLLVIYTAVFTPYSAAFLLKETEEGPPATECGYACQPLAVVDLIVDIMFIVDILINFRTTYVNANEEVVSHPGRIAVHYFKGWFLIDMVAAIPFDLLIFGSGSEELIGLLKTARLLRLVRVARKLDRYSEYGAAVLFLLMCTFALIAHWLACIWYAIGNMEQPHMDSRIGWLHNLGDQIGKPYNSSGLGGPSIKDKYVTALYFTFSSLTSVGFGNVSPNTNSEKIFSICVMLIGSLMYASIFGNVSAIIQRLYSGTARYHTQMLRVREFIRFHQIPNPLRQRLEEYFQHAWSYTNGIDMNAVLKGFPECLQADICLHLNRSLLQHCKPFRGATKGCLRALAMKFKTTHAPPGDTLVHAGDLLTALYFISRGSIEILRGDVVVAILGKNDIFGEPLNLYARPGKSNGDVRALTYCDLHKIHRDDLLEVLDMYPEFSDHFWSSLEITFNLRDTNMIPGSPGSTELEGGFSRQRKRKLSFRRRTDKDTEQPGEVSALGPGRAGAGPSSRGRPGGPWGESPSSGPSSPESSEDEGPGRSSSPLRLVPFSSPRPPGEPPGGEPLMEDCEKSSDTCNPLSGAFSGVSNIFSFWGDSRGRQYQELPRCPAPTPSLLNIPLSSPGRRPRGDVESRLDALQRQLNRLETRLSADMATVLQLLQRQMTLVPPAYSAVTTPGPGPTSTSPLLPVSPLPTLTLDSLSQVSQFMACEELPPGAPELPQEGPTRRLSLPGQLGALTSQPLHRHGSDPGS
Chain of E. coli gyrase (P0AES4 whole entry): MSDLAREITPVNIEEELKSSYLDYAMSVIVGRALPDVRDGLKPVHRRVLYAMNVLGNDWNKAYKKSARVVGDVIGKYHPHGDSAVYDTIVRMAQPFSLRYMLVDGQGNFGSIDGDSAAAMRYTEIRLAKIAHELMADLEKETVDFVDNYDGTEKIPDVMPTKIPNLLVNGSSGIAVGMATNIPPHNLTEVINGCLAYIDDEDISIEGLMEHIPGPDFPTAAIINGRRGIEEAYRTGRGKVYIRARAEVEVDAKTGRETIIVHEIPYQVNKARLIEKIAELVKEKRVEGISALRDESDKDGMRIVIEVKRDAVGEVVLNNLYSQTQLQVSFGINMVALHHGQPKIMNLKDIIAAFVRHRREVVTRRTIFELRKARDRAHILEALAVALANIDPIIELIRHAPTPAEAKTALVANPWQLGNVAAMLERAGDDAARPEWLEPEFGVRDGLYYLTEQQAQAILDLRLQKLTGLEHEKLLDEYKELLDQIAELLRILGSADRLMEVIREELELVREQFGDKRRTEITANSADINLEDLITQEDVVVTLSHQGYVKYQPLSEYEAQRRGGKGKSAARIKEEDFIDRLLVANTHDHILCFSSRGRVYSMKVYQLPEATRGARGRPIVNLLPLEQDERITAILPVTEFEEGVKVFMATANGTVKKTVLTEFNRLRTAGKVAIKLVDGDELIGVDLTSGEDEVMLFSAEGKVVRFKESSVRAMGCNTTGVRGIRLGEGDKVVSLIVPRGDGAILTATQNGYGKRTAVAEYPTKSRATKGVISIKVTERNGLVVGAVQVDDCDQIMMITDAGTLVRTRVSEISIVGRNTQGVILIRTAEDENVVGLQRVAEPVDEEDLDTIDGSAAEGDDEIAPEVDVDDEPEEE

| Compound | MIC90 (Enterobacter cloacae; Enterobacter cloacae) [µg/mL] | MIC90 (Klebsiella pneumoniae; Klebsiella pneumoniae) [µg/mL] | MIC90 (Escherichia coli; Escherichia coli) [µg/mL] | MIC90 (Citrobacter spp.; Citrobacter) [µg/mL] | MIC90 (Morganella morganii; Morganella morganii) [µg/mL] | MIC90 (Pseudomonas aeruginosa; Pseudomonas aeruginosa) [µg/mL] | MIC90 (Acinetobacter baumannii; Acinetobacter baumannii) [µg/mL] | MIC90 (Proteus spp.) [µg/mL] | further results |
| --- | --- | --- | --- | --- | --- | --- | --- | --- | --- |
| C[C@@H](O)[C@H]1C(=O)N2C(C(=O)O)=C(S[C@@H]3CN[C@H](C(=O)N(C)C)C3)[C@H](C)[C@H]12 [Meropenem] | 8 (≈ 20.9 µM) | 32 (≈ 83.4 µM) | ≤ 0.06 | ≤ 0.06 | 0.125 (≈ 0.326 µM) | 32 (≈ 83.4 µM) | > 64 | 0.125 (≈ 0.326 µM) | – |
| Colistin | – | – | – | – | – | – | – | – | MIC90 (Enterobacter cloacae): 2 µg/mL; MIC90 (Klebsiella pneumoniae; [3]): 0.5 µg/mL; MIC90 (Escherichia coli; [3]): 0.25 µg/mL; MIC90 (Citrobacter spp.; [4]): 0.5 µg/mL; MIC90 (Morganella morganii): 64 µg/mL; MIC90 (Serratia marcescens): > 32 µg/mL; MIC90 (Pseudomonas aeruginosa; [3]): 1 µg/mL; MIC90 (Acinetobacter baumannii): 0.5 µg/mL; MIC90 [1]: > 32 µg/mL; MIC90 (Proteus spp.; [5]): > 32 µg/mL |
| CNC(C)C1CCC(N)C(OC2C(N)CC(N)C(OC3OCC(C)(O)C(NC)C3O)C2O)O1 (centres unmarked) [Gentamicin] | 1 (≈ 2.09 µM) | > 32 | > 32 | 8 (≈ 16.8 µM) | 64 (≈ 134 µM) | > 32 | > 32 | 16 (≈ 33.5 µM) | – |
| NC[C@H]1O[C@H](O[C@H]2[C@H](O)[C@@H](O[C@H]3O[C@H](CO)[C@@H](O)[C@H](N)[C@H]3O)[C@H](N)C[C@@H]2N)[C@H](N)C[C@@H]1O [Tobramycin] | 32 (≈ 68.4 µM) | > 32 | 16 (≈ 34.2 µM) | 8 (≈ 17.1 µM) | 16 (≈ 34.2 µM) | > 32 | > 32 | 8 (≈ 17.1 µM) | – |
| CC(C)(O/N=C(\C(=O)N[C@@H]1C(=O)N2C(C(=O)[O-])=C(C[n+]3ccccc3)CS[C@H]12)c1csc(N)n1)C(=O)O [Ceftazidime] | 128 (≈ 234 µM) | > 64 | 64 (≈ 117 µM) | > 64 | 16 (≈ 29.3 µM) | > 32 | > 32 | 2 (≈ 3.66 µM) | – |
| Cn1c(=O)cnc2ccc(F)c(CCNC[C@H]3CN(c4cnc5c(n4)NC(=O)CO5)C(=O)O3)c21 [Compound 7, 6-[(5S)−5-[[[2-(6-Fluoro-3,4-dihydro-4-methyl-3-oxo-5-quinoxalinyl)ethyl]amino]methyl]−2-oxo-3-oxazolidinyl]−2H-pyrazino[2,3-b]−1,4-oxazin-3(4H)-one] | – | – | – | – | – | – | – | – | increase in hERG IC50 vs compound 5 (hERG K+ channel): 4 fold |
| CN(C)[C@@H]1C(O)=C(C(N)=O)C(=O)[C@@]2(O)C(O)=C3C(=O)c4c(O)c(NC(=O)CN5CCCC5)cc(F)c4C[C@H]3C[C@@H]12 [Eravacycline] | – | 1 (≈ 1.79 µM) | 0.25 (≈ 0.448 µM) | 0.5 (≈ 0.895 µM) | 1 (≈ 1.79 µM) | – | – | 2 (≈ 3.58 µM) | – |
| CN1C(=O)Cc2ccc(F)c(CCNC[C@H]3CN(c4ccc5c(n4)NC(=O)CO5)C(=O)O3)c21 [Compound 4, (S)−6-(5-(((2-(6-fluoro-1-methyl-2-oxoindolin-7-yl)ethyl)amino)methyl)−2-oxooxazolidin-3-yl)−2H-pyrido[3,2-b] [1,4] oxazin-3(4H)-one] | – | – | – | – | – | – | – | – | IC50 (E. coli gyrase): 0.036 µM; IC50 (E. coli topoisomerase IV): 57 nM |
| CO/N=C(\C(=O)N[C@@H]1C(=O)N2C(C(=O)[O-])=C(C[N+]3(C)CCCC3)CS[C@H]12)c1csc(N)n1 [Cefepime] | – | > 32 | > 32 | > 32 | > 32 | > 32 | > 32 | 16 (≈ 33.3 µM) | – |
| Piperacillin/Tazobactam | – | – | – | – | – | – | – | – | MIC90 (Enterobacter cloacae): 0.06 µg/mL; MIC90 (Pseudomonas aeruginosa; [3]): 128 µg/mL; MIC90 (Acinetobacter baumannii): > 128 µg/mL; MIC90 [1]: > 128 µg/mL |
| Ceftazidime-Avibactam | – | – | – | – | – | – | – | – | MIC90 (Enterobacter cloacae): 2 µg/mL; MIC90 (Klebsiella pneumoniae; [3]): 1 µg/mL; MIC90 (Escherichia coli; [3]): 0.25 µg/mL; MIC90 (Citrobacter spp.; [4]): 0.5 µg/mL; MIC90 (Morganella morganii): 0.125 µg/mL; MIC90 (Serratia marcescens): 1 µg/mL; MIC90 (Pseudomonas aeruginosa; [3]): > 16 µg/mL; MIC90 (Proteus spp.; [5]): 0.06 µg/mL |
| NCC[C@H](O)C(=O)N[C@@H]1C[C@H](N)[C@@H](O[C@H]2O[C@H](CN)[C@@H](O)[C@H](O)[C@H]2O)[C@H](O)[C@H]1O[C@H]1O[C@H](CO)[C@@H](O)[C@H](N)[C@H]1O [Amikacin] | 4 (≈ 6.83 µM) | 32 (≈ 54.6 µM) | 8 (≈ 13.7 µM) | 4 (≈ 6.83 µM) | 8 (≈ 13.7 µM) | 64 (≈ 109 µM) | > 64 | 4 (≈ 6.83 µM) | – |
| C[C@H]1c2cccc(O)c2C(=O)C2=C(O)[C@]3(O)C(=O)C(C(N)=O)=C(O)[C@@H](N(C)C)[C@@H]3[C@@H](O)[C@@H]21 [Doxycycline] | 16 (≈ 36 µM) | 32 (≈ 72 µM) | 32 (≈ 72 µM) | 16 (≈ 36 µM) | 64 (≈ 144 µM) | 32 (≈ 72 µM) | 64 (≈ 144 µM) | > 32 | – |
| Cn1c(=O)ccc2ccc(F)c(CCNC[C@@H]3CN(c4cnc5c(n4)NC(=O)CO5)C(=O)O3)c21 [Compound 8, 6-[(5 R)−5-[[[2-(7-Fluoro-1,2-dihydro-1-methyl-2-oxo-8-quinolinyl)ethyl]amino]methyl]−2-oxo-3-oxazolidinyl]−2H-pyrazino[2,3-b]−1,4-oxazin-3(4H)-one] | – | – | – | – | – | – | – | – | IC50 (hERG K+ channel): 60 µM |
| Cn1c(=O)ccc2ccc(F)c(CCNC[C@H]3CN(c4ncc5c(n4)NC(=O)CO5)C(=O)O3)c21 [Compound 6, 2-[(5S)−5-[[[2-(7-Fluoro-1,2-dihydro-1-methyl-2-oxo-8-quinolinyl)ethyl]amino]methyl]−2-oxo-3-oxazolidinyl]−6H-pyrimido[5,4-b][1,4]oxazin-7(8H)-one] | – | – | – | – | – | – | – | – | increase in hERG IC50 vs compound 5 (hERG K+ channel): > 10 fold |
| CN[C@@H]1[C@@H](O)[C@@H](O[C@@H]2[C@@H](O)[C@H](O[C@H]3OC(CNCCO)=CC[C@H]3N)[C@@H](N)C[C@H]2NC(=O)[C@@H](O)CCN)OC[C@]1(C)O [Plazomicin] | 0.5 (≈ 0.844 µM) | 0.5 (≈ 0.844 µM) | 1 (≈ 1.69 µM) | 0.5 (≈ 0.844 µM) | 8 (≈ 13.5 µM) | – | – | 4 (≈ 6.75 µM) | – |
| NCCCC1CN(c2ccc3c(n2)NC(=O)CO3)C(=O)O1 (centres unmarked) [Compound 1, 6-[5-(3-Aminopropyl)−2-oxo-3-oxazolidinyl]−2H-pyrido[3,2-b]−1,4-oxazin-3(4H)-one] | – | – | – | – | – | – | – | – | MIC [2]: 80 to 160 µg/mL (≈ 274 to 547 µM); IC50 (E. coli gyrase): 13.2 µM; IC50 (E. coli topoisomerase IV): 27000 nM |
| CC(C)(O/N=C(\C(=O)N[C@@H]1C(=O)N2C(C(=O)[O-])=C(C[N+]3(CCNC(=O)c4ccc(O)c(O)c4Cl)CCCC3)CS[C@H]12)c1csc(N)n1)C(=O)O [Cefiderocol] | 4 (≈ 5.32 µM) | 2 (≈ 2.66 µM) | 2 (≈ 2.66 µM) | 2 (≈ 2.66 µM) | 1 (≈ 1.33 µM) | 2 (≈ 2.66 µM) | 4 (≈ 5.32 µM) | 0.5 (≈ 0.665 µM) | – |
| COCC1=C(C(=O)O)N2C(=O)[C@@H](NC(=O)/C(=N\OC)c3csc(N)n3)[C@H]2SC1 [Cefpodoxime] | 64 (≈ 150 µM) | > 32 | > 32 | > 32 | > 32 | – | – | > 32 | – |
| C[C@H]1[C@H](NC(=O)/C(=N\OC(C)(C)C(=O)O)c2csc(N)n2)C(=O)N1S(=O)(=O)O [Aztreonam] | – | > 64 | > 64 | 64 (≈ 147 µM) | 16 (≈ 36.7 µM) | > 16 | – | 0.5 (≈ 1.15 µM) | – |
| CN1C(=O)Cc2ccc(F)c(CCNCC[C@H]3CN(c4ccc5c(n4)NC(=O)CO5)C(=O)O3)c21 [Compound 3, 6-[(5S)−5-[2-[[2-(6-fluoro-2,3-dihydro-1-methyl-2-oxo-1H-indol-7-yl)ethyl]amino]ethyl]−2-oxo-3-oxazolidinyl]−2H-pyrido[3,2-b]−1,4-oxazin-3(4H)-one] | – | – | – | – | – | – | – | – | improvement in gyrase supercoiling and topoIV decatenation IC50 over compound 1 (E. coli gyrase): > 100 fold; IC50 (E. coli topoisomerase IV): 360 nM |
| Aztreonam/Avibactam | – | – | – | – | – | – | – | – | MIC90 (Enterobacter cloacae): 0.5 µg/mL; MIC90 (Klebsiella pneumoniae; [3]): 0.25 µg/mL; MIC90 (Escherichia coli; [3]): 0.125 µg/mL; MIC90 (Citrobacter spp.; [4]): 0.25 µg/mL; MIC90 (Morganella morganii): 0.06 µg/mL; MIC90 (Serratia marcescens): 0.25 µg/mL; MIC90 (Pseudomonas aeruginosa; [3]): > 16 µg/mL; MIC90 (Proteus spp.; [5]): ≤ 0.016 µg/mL |
| CO/N=C(\C(=O)N[C@@H]1C(=O)N2C(C(=O)O)=C(CSc3nc(=O)c(=O)[nH]n3C)CS[C@H]12)c1csc(N)n1 [Ceftriaxone] | – | – | – | – | – | – | – | – | MIC90 (Neisseria gonorrhoeae): 0.06 µg/mL (≈ 0.108 µM) |
| C[C@H]1COc2c(N3CCN(C)CC3)c(F)cc3c(=O)c(C(=O)O)cn1c23 [Levofloxacin] | 64 (≈ 177 µM) | > 32 | 16 (≈ 44.3 µM) | 2 (≈ 5.53 µM) | 16 (≈ 44.3 µM) | 32 (≈ 88.6 µM) | > 32 | 8 (≈ 22.1 µM) | – |
| CN1C(=O)Cc2ccc(F)c(CNCCCC3CN(c4ccc5c(n4)NC(=O)CO5)C(=O)O3)c21 (centres unmarked) [Compound 2, 6-[5-[3-[[(6-Fluoro-2,3-dihydro-1-methyl-2-oxo-1H-indol-7-yl)methyl]amino]propyl]−2-oxo-3-oxazolidinyl]−2H-pyrido[3,2-b]−1,4-oxazin-3(4H)-one] | – | – | – | – | – | – | – | – | improvement in gyrase supercoiling and topoIV decatenation IC50 over compound 1 (E. coli gyrase): > 100 fold |
| Meropenem-vaborbactam | – | – | – | – | – | – | – | – | MIC90 (Enterobacter cloacae): 0.25 µg/mL; MIC90 (Klebsiella pneumoniae; [3]): 16 µg/mL; MIC90 (Escherichia coli; [3]): ≤ 0.03 µg/mL; MIC90 (Citrobacter spp.; [4]): ≤ 0.03 µg/mL; MIC90 (Morganella morganii): 0.06 µg/mL; MIC90 (Serratia marcescens): 0.125 µg/mL; MIC90 (Pseudomonas aeruginosa; [3]): 32 µg/mL; MIC90 (Acinetobacter baumannii): > 32 µg/mL; MIC90 [1]: > 32 µg/mL; MIC90 (Proteus spp.; [5]): 0.125 µg/mL |
